Data from patent US11485736B2 (KSQ Therapeutics, Inc., priority 2018, dated 2022).
Read-outs that look alike come from different tables or passages of the source.

Legend:
[1] = ADME solubility determination at pH 2.0 and pH 7.4; format: physicochemical; conditions: aqueous buffer, thermodynamic from solid, LC-MS/MS
Procedure: Certain Compounds of the Disclosure were assessed for ADME solubility at pH 2.0 and pH 7.4.
Stock solutions were prepared by adding each compound to DMSO at a concentration of 10 mM. Samples were prepared by adding 50 μL of each stock solution to separate vials. The vials were loaded onto a 96-well rack and dried. 500 μL of Phosphate Buffered Saline (PBS) pH 7.4 or PBS pH 2.0 were added into each vial. The vials were then shaken at 25° C. and 1,100 rpm for 24 hours.
After 24 hours, the vials were centrifuged at 3220 G and 25° C. for 30 minutes. The supernatant fluid was analyzed by LC-MS/MS against a standard of known concentration. The solubility of each sample was then calculated using the equation below:
[formula] where DF is the dilution factor.

[2] = Liver microsomal stability, human liver microsomes; format: in vitro ADME; conditions: 1 μM compound, NADPH, read-out: t1/2 (min) in HLM
Procedure: (§1) Certain Compounds of the Disclosure were assessed for ADME metabolic stability in human liver microsomes (HLM) and rat liver microsomes (RLM).
(§2) Samples were prepared by adding 222.5 μL of a master solution (100 mM phosphate buffer and 1 mg/mL liver microsomes (HLM or RLM)) and 25 μL of a 10 mM NADPH solution to incubation plates, which were then warmed for 10 min. Each compound was separately dissolved in DMSO to prepare 10 mM stock solutions, which were then diluted to 100 μM with acetonitrile. A reaction was started by adding 2.5 μL of the 100 μM solution of each compound to separate incubation plates such that the final concentration of for each compound in each plate was 1 μM.
(§3) 25 μL aliquots of each sample were taken at 0.5, 5, 10, 15, 20 and 30 minutes, and the reaction was stopped by adding 5 volumes of cold acetonitrile with IS (100 nM alprazolam, 200 nM caffeine and 100 nM tolbutamide). The samples were then centrifuged at 3,220 G for 30 minutes, and 100 μL of the supernatant fluid was mixed with 100 μL of ultra-pure H2O.
(§4) The samples were then analyzed by LC-MS/MS. Peak areas were determined from extracted ion chromatograms. Slope values (k) were determined by linear regression of the natural logarithm of the remaining percentage of the compound vs. incubation time curve. […] The in vitro half-life (min) was converted into the in vitro intrinsic clearance (in vitro CLint, in μL/min/mg protein) using the following equation: […]

[3] = Liver microsomal stability, rat liver microsomes; format: in vitro ADME; conditions: 1 μM compound, NADPH, read-out: t1/2 (min) in RLM
Procedure: as §1, §2, §3, §4

[4] = PBS pH 2.0, shaken at 25° C. for 24 hours, read-out: Solubility at pH 2.0
[5] = PBS pH 7.4, shaken at 25° C. for 24 hours, read-out: Solubility at pH 7.4
[6] = phosphate buffered saline, PBS pH 2.0, shaken at 25° C. for 24 hours, read-out: Solubility at pH 2.0
[7] = phosphate buffered saline, PBS pH 7.4, shaken at 25° C. for 24 hours, read-out: Solubility at pH 7.4

SMILES	solubility at 24 h [1, 4] [µM]	solubility at 24 h [1, 5] [µM]	half-life at 1 μM [2] [min]	half-life at 1 μM [3] [min]	solubility at 24 h [1, 6] [µM]	solubility at 24 h [1, 7] [µM]
COc1ncnc(C2CC2)c1-c1ncc2cnn(Cc3ccc(-c4nc(C(F)(F)F)cn4C)cc3)c2n1 [Example 12, 6-(4-cyclopropyl-6-methoxypyrimidin-5-yl)-1-(4-(1-methyl-4-(trifluoromethyl)-1H-imidazol-2-yl)benzyl)-1H-pyrazolo[3,4-d]pyrimidine]	> 10	> 10	< 25	> 25		
CCn1cc(C(F)(F)F)nc1-c1ccc(Cn2ncc3cnc(-c4c(OC)cnn4C4CC4)nc32)cc1 [Example 82]	< 10	< 10	< 25	< 25		
CCn1cc(C(F)(F)F)nc1-c1ccc([C@H](C)n2ncc3cnc(-c4c(OC)ncnc4C4CC4)nc32)cc1 (single isomer, unassigned) [Example 94]	> 10	< 10	> 25	< 25		
CCn1cc(C(F)(F)F)nc1-c1ccc([C@H](C)n2ncc3cnc(-c4c(OC)ncnc4C(C)C)nc32)cc1 [Example 117]	> 10	> 10	< 25	< 25		
CCn1cc(C(F)(F)F)nc1-c1ccc(Cn2nc(N3CCC3)c3cnc(-c4c(OC)ncnc4C4CC4)nc32)cc1 [Example 186, 3-(azetidin-1-yl)-6-(4-cyclopropyl-6-methoxypyrimidin-5-yl)-1-(4-(1-ethyl-4-(trifluoromethyl)-1H-imidazol-2-yl)benzyl)-1H-pyrazolo[3,4-d]pyrimidine]	> 10	> 10	< 25	< 25		
Cc1cc(C(F)(F)F)nn1-c1ccc(Cn2ncc3cnc(-c4cccnc4C(C)C)nc32)cc1 [Example 26]	> 10	< 10	> 25	< 25		
Cc1ncnc(C(C)C)c1-c1ncc2cnn(Cc3ccc(-n4nc(C(F)(F)F)cc4C)cc3)c2n1 [Example 45]			< 25	< 25	< 10	< 10
CCn1cc(C(F)(F)F)nc1-c1ccc(Cn2ncc3cnc(-c4c(OC)ncnc4C4CC4)nc32)cn1 [Example 75]	< 10	< 10	> 25	> 25		
Cc1cc(C(F)(F)F)nn1-c1ccc(Cn2ncc3cnc(-c4cccnc4C#N)nc32)cc1 [Example 49]	< 10	< 10	> 25	> 25		
CCn1cc(C(F)(F)F)nc1-c1ccc(Cn2ncc3c(C)nc(-c4c(OC)ncnc4C4CC4)nc32)cc1 [Example 53]	< 10	< 10	> 25	> 25		
COc1cnn(C2CC2)c1-c1ncc2cnn(Cc3ccc(-c4nc(C(F)(F)F)cn4C)cc3)c2n1 [Example 81]	< 10	< 10	< 25	< 25		
COc1nccc(C)c1-c1ncc2cnn(Cc3ccc(-c4nc(C(F)(F)F)cn4C)cc3)c2n1 [Example 6, 6-(2-methoxy-4-methylpyridin-3-yl)-1-(4-(1-methyl-4-(trifluoromethyl)-1H-imidazol-2-yl)benzyl)-1H-pyrazolo[3,4-d]pyrimidine]	> 10	< 10	< 25	< 25		
COc1ncnc(C2CC2)c1-c1ncc2cnn(Cc3ccc(-c4nc(C(F)(F)F)nn4C)cc3)c2n1 [Example 56]			> 25	> 25	> 10	< 10
CCn1c(-c2ccc(Cn3ncc4cnc(-c5c(OC)ncnc5C5CC5)nc43)cc2)nc(C(F)(F)F)c1C [Example 167, 6-(4-cyclopropyl-6-methoxypyrimidin-5-yl)-1-(4-(1-ethyl-5-methyl-4-(trifluoromethyl)-1H-imidazol-2-yl)benzyl)-1H-pyrazolo[3,4-d]pyrimidine]	> 10	< 10	< 25	< 25		
COc1ncnc(C(C)C)c1-c1ncc2cnn(Cc3ccc(-n4nc(C(F)(F)F)cc4C)cc3)c2n1 [Example 115]	< 10	< 10	< 25	< 25		
COc1ncnc(C2CC2)c1-c1ncc2cnn(Cc3ccc(-n4nc(C(F)F)cc4N(C)C)cc3)c2n1 [Example 123]	< 10	< 10	< 25	< 25		
COc1ncnc(C2CC2)c1-c1ncc2cnn(Cc3ccc(-c4nc(C(F)(F)F)cn4CC(F)F)cc3)c2n1 [Example 138]	> 10	> 10	> 25	> 25		
COc1ncnc(C2CC2)c1-c1ncc2nc(C3CCC3)n(Cc3ccc(-n4nc(C(F)(F)F)cc4C)cc3)c2n1 [Example 214]	< 10	< 10	> 25	> 25		
CCn1cc(C(F)(F)F)nc1-c1ccc(Cn2nc(SCc3ccc(OC)cc3)c3cnc(-c4c(OC)ncnc4C4CC4)nc32)cc1 [Example 192, 6-(4-cyclopropyl-6-methoxypyrimidin-5-yl)-1-(4-(1-ethyl-4-(trifluoromethyl)-1H-imidazol-2-yl)benzyl)-3-((4-methoxybenzyl)thio)-1H-pyrazolo[3,4-d]pyrimidine]	< 10	< 10	< 25	< 25		
COc1ncnc(C2CC2)c1-c1ncc2cnn(Cc3ccc(-c4nc(C(F)(F)F)c(OC)n4C(C)C)cc3)c2n1 [Example 166]	< 10	< 10	< 25	< 25		
CCn1cc(C(F)(F)F)nc1-c1ccc(C(C)n2ncc3cnc(-c4c(OC)ncnc4C(C)C)nc32)cc1F (centres unmarked) [Example 116]	> 10	< 10	< 25	< 25		
COc1nc(N)nc(C2CC2)c1-c1ncc2cnn(Cc3ccc(-n4nc(C(F)(F)F)cc4C)cc3)c2n1 [Example 112]	> 10	< 10	> 25	> 25		
COc1ncnc(C2CC2)c1-c1ncc2cnn(Cc3ccc(-c4nc(C(F)(F)F)cn4CCF)cc3)c2n1 [Example 137]	> 10	> 10	> 25	> 25		
CNc1cc(C(F)(F)F)nn1-c1ccc(Cn2ncc3cnc(-c4c(OC)ncnc4C4CC4)nc32)cc1 [Example 120]	< 10	< 10	< 25	< 25		
COc1cn(C(C)C)c(-c2ccc(Cn3ncc4cnc(-c5c(OC)ncnc5C5CC5)nc43)cc2)n1 [Example 74]	> 10	> 10	< 25	< 25		
COc1ncnc(C2CC2)c1-c1ncc2cnn(Cc3ccc(-c4nc(C(F)(F)F)cn4C4CN(C)C4)cc3)c2n1 [Example 153]			< 25	< 25	> 10	> 10
COc1ncnc(C2CCC2)c1-c1ncc2cnn(Cc3ccc(-c4nc(C(F)(F)F)cn4C(C)C)cc3)c2n1 [Example 16]	> 10	< 10	< 25	< 25		
CCn1cc(C(F)(F)F)nc1-c1ccc(Cn2ncc3cnc(-c4c(OC5CCC5)ncnc4C4CC4)nc32)cc1 [Example 64]	< 10	< 10	< 25	< 25		
[2H]C([2H])([2H])Oc1ncnc(C2CC2)c1-c1ncc2cnn(Cc3ccc(-c4nc(C(F)(F)F)cn4CC)cc3)c2n1 [Example 67]	> 10	< 10	> 25	> 25		
